Measurements from ChEMBL document CHEMBL1123498, “Structural studies on bioactive compounds. 4. A structure-antitumor activity study on analogues of N-methylformamide” (J Med Chem, 1986).

Legend:
Mus musculus [1] = assay: Antitumor activity was evaluated against the M5076 reticulum cell sarcoma in mice at dose of 2500-600 mg/kg per day; assay type: ADME, organism-based
Mus musculus [2] = assay: Antitumor activity was evaluated against the M5076 reticulum cell sarcoma in mice measured as mean tumor volume for the treated at the optimal dose 1000 mg/Kg/day; assay type: functional
Mus musculus [3] = assay: Antitumor activity was evaluated against the M5076 reticulum cell sarcoma in mice measured as Control tumor volume for the treated at the optimal dose 1000 mg/Kg/day; assay type: functional
Mus musculus [4] = assay: Antitumor activity was evaluated for the compound against the M5076 reticulum cell sarcoma in mice and the % T/C(treated/control) value was calculated at optimal dose of 1000 mg/kg; assay type: functional
Mus musculus [5] = assay: Antitumor activity was evaluated against the M5076 reticulum cell sarcoma in mice measured as Control tumor volume for the treated at the optimal dose 400 mg/Kg day; assay type: functional
Mus musculus [6] = assay: Antitumor activity was evaluated against the M5076 reticulum cell sarcoma in mice measured as mean tumor volume for the treated at the optimal dose 400 mg/kg day; assay type: functional
Mus musculus [7] = assay: Antitumor activity was evaluated against the M5076 reticulum cell sarcoma in mice at dose of 800-100 mg/kg per day; assay type: ADME, organism-based
Mus musculus [8] = assay: Antitumor activity was evaluated against the TLX5 lymphoma measured as mean death day for the treated at a optimal dose 800 mg/Kg/day; assay type: functional
Mus musculus [9] = assay: Antitumor activity was evaluated against the TLX5 lymphoma in mice measured for control as death day at a optimal doses of 800 mg/Kg/day; assay type: functional
Mus musculus [10] = assay: Antitumor activity was evaluated against the TLX5 lymphoma in mice measured as treated to control at optimal dose. 400 mg/Kg/day; assay type: functional
Mus musculus [11] = assay: Antitumor activity was evaluated against the TLX5 lymphoma measured as mean death day for the treated at a optimal dose of 400 mg/Kg/day; assay type: functional
Mus musculus [12] = assay: Antitumor activity was evaluated against the TLX5 lymphoma measured as mean death day for the treated at a optimal dose of 200 mg/Kg/day; assay type: functional
Mus musculus [13] = assay: Antitumor activity was evaluated against the TLX5 lymphoma in mice measured as treated to control at a optimal dose of 200 mg/Kg/day; assay type: functional
Mus musculus [14] = assay: Antitumor activity was evaluated for the compound against the M5076 reticulum cell sarcoma in mice and the % T/C(treated/control) value was calculated at optimal dose of 50 mg/kg; assay type: functional
Mus musculus [15] = assay: Antitumor activity was evaluated against the TLX5 lymphoma in mice measured for control as death day at a optimal dose of 200 mg/Kg/day; assay type: functional
Mus musculus [16] = assay: Antitumor activity was evaluated against the TLX5 lymphoma in mice measured for control as death day at a optimal dose of 100 mg/Kg/day; assay type: functional
Mus musculus [17] = assay: Antitumor activity was evaluated against the TLX5 lymphoma in mice measured as treated to control at a optimal dose of 400 mg/Kg/day; assay type: functional
Mus musculus [18] = assay: Antitumor activity was evaluated against the M5076 reticulum cell sarcoma in mice measured as mean tumor volume for the treated at the optimal dose 100 mg/Kg/day; assay type: functional
Mus musculus [19] = assay: Antitumor activity was evaluated against the TLX5 lymphoma in mice measured as treated to control at a optimal dose of 100 mg/Kg/day; assay type: functional
Mus musculus [20] = assay: Antitumor activity was evaluated against the TLX5 lymphoma in mice measured as treated to control at a optimal dose of 800 mg/Kg/day; assay type: functional
Mus musculus [21] = assay: Antitumor activity was evaluated against the M5076 reticulum cell sarcoma in mice measured as mean tumor volume for the treated at the optimal dose 25 mg/Kg/day; assay type: functional
Mus musculus [22] = assay: Antitumor activity was evaluated against the M5076 reticulum cell sarcoma in mice measured as Control tumor volume for the treated at the optimal dose 25 mg/Kg/day; assay type: functional
Mus musculus [23] = assay: Antitumor activity was evaluated against the TLX5 lymphoma measured as mean death day for the treated at a optimal dose of 800 mg/Kg/day; assay type: functional
Mus musculus [24] = assay: Antitumor activity was evaluated for the compound against the M5076 reticulum cell sarcoma in mice and the % T/C(treated/control) value was calculated at optimal dose of 100 mg/kg; assay type: functional
Mus musculus [25] = assay: Antitumor activity was evaluated against the M5076 reticulum cell sarcoma in mice measured as Control tumor volume for the treated at the optimal dose 50 mg/kg/day; assay type: functional
Mus musculus [26] = assay: Antitumor activity was evaluated against the M5076 reticulum cell sarcoma in mice at dose of 400-6.25 mg/kg per day; assay type: ADME, organism-based
Mus musculus [27] = assay: Antitumor activity was evaluated against the TLX5 lymphoma measured as mean death day for the treated at a optimal dose of 100 mg/Kg/day; assay type: functional
Mus musculus [28] = assay: Antitumor activity was evaluated against the M5076 reticulum cell sarcoma in mice measured as Control tumor volume for the treated at the optimal dose 100 mg/kg/day; assay type: functional
Mus musculus [29] = assay: Antitumor activity was evaluated against the M5076 reticulum cell sarcoma in mice measured as mean tumor volume for the treated at the optimal dose 50 mg/Kg/day; assay type: functional
Mus musculus [30] = assay: Antitumor activity was evaluated against the TLX5 lymphoma in mice measured for control as death day at a optimal dose of 800 mg/Kg/day; assay type: functional
Mus musculus [31] = assay: Antitumor activity was evaluated against the TLX5 lymphoma in mice measured for control as death day at the below optimal dose 400 mg/Kg/day; assay type: functional
Mus musculus [32] = assay: Antitumor activity was evaluated for the compound against the M5076 reticulum cell sarcoma in mice and the % T/C(treated/control) value was calculated at optimal dose of 25 mg/kg; assay type: functional
Mus musculus [33] = assay: Antitumor activity was evaluated for the compound against the M5076 reticulum cell sarcoma in mice and the % T/C(treated/control) value was calculated at optimal dose of 200 mg/kg; assay type: functional
Mus musculus [34] = assay: Antitumor activity was evaluated against the M5076 reticulum cell sarcoma in mice measured as Control tumor volume for the treated at the optimal dose 200 mg/Kg/day; assay type: functional
Mus musculus [35] = assay: Antitumor activity was evaluated against the TLX5 lymphoma in mice measured as treated to control at optimal dose. 100 mg/Kg/day; assay type: functional
Mus musculus [36] = assay: Antitumor activity was evaluated against the M5076 reticulum cell sarcoma in mice measured as Control tumor volume for the treated at the optimal dose 50 mg/Kg/day; assay type: functional
Mus musculus [37] = assay: Antitumor activity was evaluated against the M5076 reticulum cell sarcoma in mice at dose of 200-25 mg/kg per day; assay type: ADME, organism-based
Mus musculus [38] = assay: Antitumor activity was evaluated against the TLX5 lymphoma in mice measured for control as death day at a optimal dose 400 mg/Kg/day; assay type: functional
Mus musculus [39] = assay: Antitumor activity was evaluated against the TLX5 lymphoma measured as mean death day for the treated at a optimal dose 400 mg/Kg/day; assay type: functional
Mus musculus [40] = assay: Antitumor activity was evaluated against the TLX5 lymphoma in mice measured as treated to control at optimal dose. 800 mg/Kg/day; assay type: functional
Mus musculus [41] = assay: Antitumor activity was evaluated against the M5076 reticulum cell sarcoma in mice at dose of 150-6.25 mg/kg per day; assay type: ADME, organism-based
Mus musculus [42] = assay: Antitumor activity was evaluated against the M5076 reticulum cell sarcoma in mice at dose of 1500-600 mg/kg per day; assay type: functional
Mus musculus [43] = assay: Antitumor activity was evaluated against the M5076 reticulum cell sarcoma in mice measured as mean tumor volume for the treated at the optimal dose 200 mg/Kg/day; assay type: functional
Mus musculus [44] = assay: Antitumor activity was evaluated against the M5076 reticulum cell sarcoma in mice at dose of 400-100 mg/kg per day; assay type: ADME, organism-based

O=CNCO
LD10 (Mus musculus [1]): 1580 mg/kg/day
LD50 (Mus musculus [1]): 1930 mg/kg/day
Mean tumor volume (Mus musculus [2]): 0.8
Control tumor volume (Mus musculus [3]): 2.1
T/C (Mus musculus [4]): 38%

CNC(=O)c1ccccc1
Control tumor volume (Mus musculus [5]): 1.9
Mean tumor volume (Mus musculus [6]): 0.8
LD10 (Mus musculus [7]): 450 mg/kg/day
LD50 (Mus musculus [7]): 650 mg/kg/day

[2H]C([2H])([2H])NC=O
Mean day of death (Mus musculus [8]): 18.8
Control death day (Mus musculus [9]): 13.2
T/C (Mus musculus [10]): 142%

CNC=O
Mean day of death (Mus musculus [11]): 16.4
Mean day of death (Mus musculus [12]): 12.4
T/C (Mus musculus [13]): 135%
T/C (Mus musculus [14]): 33%
Control death day (Mus musculus [15]): 9.2
Control death day (Mus musculus [16]): 9.2
T/C (Mus musculus [17]): 178%
Mean tumor volume (Mus musculus [18]): 0.3
T/C (Mus musculus [19]): 120%
T/C (Mus musculus [20]): 191%
Mean tumor volume (Mus musculus [21]): 2.1
Control tumor volume (Mus musculus [22]): 2.7
Mean day of death (Mus musculus [23]): 17.6
T/C (Mus musculus [24]): 11%
Control tumor volume (Mus musculus [25]): 2.7
LD10 (Mus musculus [26]): 220 mg/kg/day
LD50 (Mus musculus [26]): 300 mg/kg/day
Mean day of death (Mus musculus [27]): 11
Control tumor volume (Mus musculus [28]): 2.7
Mean tumor volume (Mus musculus [29]): 0.9
Control death day (Mus musculus [30]): 9.2
Control death day (Mus musculus [31]): 9.2
T/C (Mus musculus [32]): 70%
T/C (Mus musculus [33]): 0%
Control tumor volume (Mus musculus [34]): 2.7

CN(C)/C=C\[N+](=O)[O-]
T/C (Mus musculus [35]): 139%
T/C (Mus musculus [14]): 35%
Control tumor volume (Mus musculus [36]): 1.5
Control death day (Mus musculus [16]): 11.1
LD10 (Mus musculus [37]): 55 mg/kg/day
LD50 (Mus musculus [37]): 75 mg/kg/day
Mean day of death (Mus musculus [27]): 15.4
Mean tumor volume (Mus musculus [29]): 0.5

CCNC=O
Control death day (Mus musculus [38]): 9.2
Mean day of death (Mus musculus [39]): 12.6
T/C (Mus musculus [40]): 137%

CNC(=O)ON(C(C)=O)C(=O)NC [CARACEMIDE]
T/C (Mus musculus [14]): 38%
Control tumor volume (Mus musculus [36]): 2.4
LD10 (Mus musculus [41]): 53 mg/kg/day
LD50 (Mus musculus [41]): 63 mg/kg/day
Mean tumor volume (Mus musculus [29]): 0.9

CN(C)C=O [DIMETHYLFORMAMIDE]
LD10 (Mus musculus [42]): 1130 mg/kg/day
LD50 (Mus musculus [42]): 1280 mg/kg/day
Mean tumor volume (Mus musculus [2]): 1
Control tumor volume (Mus musculus [3]): 2.5
T/C (Mus musculus [4]): 40%

NC=O [FORMAMIDE]
Mean tumor volume (Mus musculus [43]): 0.8
Control death day (Mus musculus [9]): 9.1
Mean day of death (Mus musculus [23]): 11.2
T/C (Mus musculus [40]): 123%
LD10 (Mus musculus [44]): 200 mg/kg/day
LD50 (Mus musculus [44]): 270 mg/kg/day
T/C (Mus musculus [33]): 38%
Control tumor volume (Mus musculus [34]): 2.1
